Where a name gives a salt, the structure may show the parent alone. Read-outs that look alike come from different tables or passages of the source.
Experiments:
[1] = system: LPS-induced microglia activation; experiment: Image-based assay of LPS-induced microglia activation (HTS and dose response); type: cell-based, rat; details: for inhibition at 10 µM: Rattus norvegicus, Microglia, read-out: LPS % inhibition
[2] = system: fibrin- and LPS-induced microglia activation; experiment: cells; type: cell-based, rat
primary rat microglia [3] = system: primary rat microglia;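 for Fibrin % cell toxicity: share of dead cells sized under 150 µm2 at 10 µM in fibrin-stimulated microglia HTS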
primary rat microglia [4] = system: primary rat microglia; remark: listed apart in the source;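 for Fibrin % cell toxicity: share of dead cells sized under 150 µm2 at 10 µM in fibrin-stimulated microglia HTS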
[5] = system: fibrin-induced microglia activation; experiment: Image-based assay of fibrin-induced microglia activation (HTS and dose response); type: cell-based, rat; details: for inhibition at 10 µM: Rattus norvegicus, Microglia, read-out: Fibrin % inhibition
[6] = primary microglia HTS, 10 μM, LPS-stimulated, cell size >800 μm^2 as marker of activation
[7] = HTS of 1907 compounds, quadrant by fibrin and LPS inhibition
[8] = primary microglia HTS, 10 μM, fibrin-stimulated, cell size >800 μm^2 as marker of activation
[9] = primary microglia HTS, LPS stimulation, compounds at 10 μM
[10] = quadrant by fibrin and LPS inhibition, HTS at 10 μM
[11] = primary microglia HTS, fibrin stimulation, compounds at 10 μM

SMILES | inhibition at 10 µM [1] [%] | Quadrant (FIG. 5b) [2] | LPS % cell toxicity (primary rat microglia [3]; rat) [%] | Fibrin % cell toxicity (primary rat microglia [4]; rat) [%] | inhibition at 10 µM [5] [%] | inhibition at 10 µM [1, 6] [%] | Quadrant (FIG. 5b) [2, 7] | inhibition at 10 µM [5, 8] [%] | also measured
CN1C(C(=O)Nc2ccccn2)=C(O)c2sccc2S1(=O)=O [Tenoxicam] | 15 | Q4 | 0 | 1 | 11 |  |  |  | 
COc1cc2nc(N3CCN(C(=O)C4CCCO4)CC3)nc(N)c2cc1OC (stereo not shown) [Terazosin] | 9 | Q4 | 0 | 1 | -1 |  |  |  | 
CN(C)[C@@H]1C(O)=C(C(N)=O)C(=O)[C@@]2(O)C(O)=C3C(=O)c4c(O)cccc4[C@@](C)(O)[C@H]3C[C@@H]12 [Tetracycline] | 19 | Q4 | 0 | 0 | 7 |  |  |  | 
c1ccc(C2CN3CCSC3=N2)cc1 (stereo not shown) [Tetramizole Hydrochloride] | 112 | Q2 | 5 | 8 | 107 |  |  |  | 
O=C1CCC(N2C(=O)c3ccccc3C2=O)C(=O)N1 (stereo not shown) [Thalidomide] |  |  | 1 | 0 |  | 23 | Q4 | 8 | 
CCCC(C)C1(CC)C(=O)NC(=S)NC1=O (stereo not shown) [Thiopental] | 13 | Q4 | 0 | 0 | 3 |  |  |  | 
S=P(N1CC1)(N1CC1)N1CC1 [Thiotepa] |  |  | 1 | 1 |  | 15 | Q4 | -15 | 
CN1CCN(CC/C=C2/c3ccccc3Sc3ccc(S(=O)(=O)N(C)C)cc32)CC1 [Thiothixene] |  |  | 0 | 0 |  | 37 | Q4 | -4 | 
CN(C)C(=S)SSC(=S)N(C)C [Thiram] |  |  | 64 | 91 |  |  |  |  | inhibition at 10 µM [1, 9]: 126%; Quadrant (FIG. 5b) [2, 10]: Q2; inhibition at 10 µM [5, 11]: 109%
COc1ccc(CN(CCN(C)C)c2ncccn2)cc1 [Thonzylamine Hydrochloride] |  |  | 0 | 0 |  | 6 | Q4 | -21 | 
Cc1ccc(C(C)C)c(O)c1 [Thymol] |  |  | 0 | 1 |  | 20 | Q4 | 15 | 
Clc1ccc2nsnc2c1NC1=NCCN1 [Tizanidine] | 2 | Q4 | 1 | 1 | 2 |  |  |  | 
CCCCNC(=O)NS(=O)(=O)c1ccc(C)cc1 [Tolbutamide] | 24 | Q4 | 0 | 1 | 31 |  |  |  | 
Cc1ccc(C(=O)c2cc(O)c(O)c([N+](=O)[O-])c2)cc1 [Tolcapone] |  |  | 0 | 1 |  | 9 | Q4 | -43 | 
Cc1c(Cl)cccc1Nc1ccccc1C(=O)O [Tolfenamic Acid] |  |  | 1 | 1 |  | 36 | Q4 | 3 | 
Cc1ccc(C(=O)c2ccc(CC(=O)O)n2C)cc1 [Tolmetin] |  |  | 0 | 0 |  | 28 | Q4 | 48 | 
CC[C@@]1(O)C(=O)OCc2c1cc1n(c2=O)Cc2cc3c(CN(C)C)c(O)ccc3nc2-1 [Topotecan, Topotecan Hydrochloride] |  |  |  |  |  |  |  |  | LPS % inhibition [1, 9]: 112%; Quadrant (FIG. 5b) [2, 10]: Q2; LPS % cell toxicity (primary rat microglia [3]): 40%; Fibrin % cell toxicity (primary rat microglia [4]): 63%; Fibrin % inhibition [5, 11]: 112%
CN(C)CCOc1ccc(/C(=C(/CCCl)c2ccccc2)c2ccccc2)cc1 [Toremifene] | 19 | Q4 | 0 | 1 | 14 |  |  |  | 
CCOC(=O)[C@H](CCc1ccccc1)N[C@@H](C)C(=O)N1[C@H](C(=O)O)C[C@H]2CCCC[C@@H]21 [Trandolapril] | 15 | Q4 | 0 | 1 | -5 |  |  |  | 
NC[C@H]1CC[C@H](C(=O)O)CC1 [Tranexamic Acid] | 13 | Q4 | 0 | 1 | -4 |  |  |  | 
N[C@@H]1C[C@H]1c1ccccc1.N[C@H]1C[C@@H]1c1ccccc1.O=S(=O)(O)O [Tranylcypromine Sulfate] |  | Q4 |  |  |  |  |  |  | LPS % inhibition ([1]; 10 µM): 17%; LPS % cell toxicity (primary rat microglia [3]): 0%; Fibrin % cell toxicity (primary rat microglia [4]): 0%; Fibrin % inhibition ([5]; 10 µM): 3%
O=c1n(CCCN2CCN(c3cccc(Cl)c3)CC2)nc2ccccn12 [Trazodone] | -2 | Q4 | 0 | 0 | -10 |  |  |  | 
CC1=C(/C=C/C(C)=C/C=C/C(C)=C/C(=O)O)C(C)(C)CCC1 [Tretinon, Tretinoin] |  |  |  |  |  |  | Q4 |  | LPS % inhibition [1, 6]: 34%; LPS % cell toxicity (primary rat microglia [3]): 1%; Fibrin % cell toxicity (primary rat microglia [4]): 1%; Fibrin % inhibition [5, 8]: 27%
Nc1nc(N)c2nc(-c3ccccc3)c(N)nc2n1 [Triamterene] |  |  | 0 | 1 |  | 24 | Q4 | 40 | 
NCCNCCNCCN [Triethylenetetramine] | 10 | Q4 | 0 | 1 | 3 |  |  |  | 
O=c1[nH]c(=O)n([C@H]2C[C@H](O)[C@@H](CO)O2)cc1C(F)(F)F [Trifluridine] |  |  | 1 | 1 |  | 16 | Q4 | 10 | 
OC(CCN1CCCCC1)(c1ccccc1)C1CCCCC1 (stereo not shown) [Trihexyphenidyl] | 14 | Q4 | 1 | 1 | 5 |  |  |  | 
CCC(COC(=O)c1cc(OC)c(OC)c(OC)c1)(c1ccccc1)N(C)C (stereo not shown) [Trimebutine] |  |  | 0 | 1 |  | 13 | Q4 | -11 | 
COc1cc(Cc2cnc(N)nc2N)cc(OC)c1OC [Trimethoprim] | 17 | Q4 | 0 | 0 | -26 |  |  |  | 
